{"source": "patent US4562151A", "about": "“Stabilization of L-phenylalanine ammonia-lyase enzyme” (Monsanto Company, priority 1983, dated 1985)", "key": {"[1]": {"test_system": "L-phenylalanine ammonia-lyase", "experiment": "Relative effect of polyhydric alcohols on PAL activity, 19 hour incubation (Table III)", "assay_type": "biochemical, R. glutinis", "details": "for Stabilizing effect on L-phenylalanine ammonia-lyase: monohydric and dihydric alcohols, concentration not given; for PAL Enzyme Activity: 240 mM cinnamate, 6.0 M ammonia, pH 11.5, 37° C., cells about 90 mg/ml, 19 hour incubation, control without alcohol 28", "description": "The reaction mixture consisted of 6.0 M ammonia, 240 mM cinnamate, R. glutinis cells and the above described polyhydric alcohol at pH 11.5 and 37° C. The final concentration of R. glutinis cells was approximately 90 mg/ml (wet weight). L-phenylalanine formation was determinted by high pressure liquid chromatography following a 19 hour incubation period."}, "[2]": {"test_system": "L-phenylalanine ammonia-lyase enzyme", "experiment": "Effect of cinnamate concentration on PAL activity, R. glutinis cells, with or without glycerol (Table I)", "assay_type": "biochemical, Rhodotorula glutinis", "details": "for PAL Activity with glycerol: glycerol 2.3 M, ammonia 6.8 M, pH 11.2, 37° C., activity at 46.1 mM cinnamate taken as 100", "text": "For conciseness, the following explanation and examples of the present invention are described with respect to L-phenylalanine ammonia-lyase enzyme from Rhodotorula glutinis cells (ATCC 15385) known to catalyze the reversible reaction between trans-cinnamate and an ammonia donor to form L-phenylalanine. To facilitate transport of substrate and product across the cell membrane about 3 to 5 microliters of polyethyleneglycol-p-isooctylphenylether per gram wet weight of cells is preferably added to the microbial cell suspension. It should be understood that the addition of polyethylene glycol-p-isooctylphenylether or other detergents which increase the permeability of cell membranes is not necessary for practice of the present invention.\nThe effects of increasing cinnamate concentrations on the reactivity of L-phenylalanine ammonia-lyase enzyme with and without the addition of glycerol are shown in Table I.\n^(1) glycerol concentration = 2.3 M, ammonia concentration = 6.8 M; p\nof the reaction mixture = 11.2; temperature = 37° C.; concentratio\nof R. glutinis cells = 90 mg/ml. Enzyme activity at 46.1 mM cinnamate was\n^(2) ammonia concentration = 6.8 M; pH of the reaction mixture = 11.2\ntemperature = 37° C.; concentration of R. glutinis cells = 90\nmg/ml. Enzyme activity at 60.0 mM cinnamate was taken as 100."}, "[3]": {"test_system": "L-phenylalanine ammonia-lyase enzyme", "experiment": "24 hour time course of L-phenylalanine formation with and without glycerol (Figure)", "assay_type": "biochemical, R. glutinis", "details": "2.0 M glycerol, 200 mM cinnamate, 6.0 M ammonia, pH 11.5, 37° C., cells about 90 mg/ml", "description": "Further experiments have shown that polyhydric alcohols, such as glycerol, have a substantial effect on the short-term activity of the L-phenylalanine ammonia-lyase enzyme in addition to a stabilizing effect on the long-term activity of the enzyme. The relative rates of L-phenylalanine formation from trans-cinnamate for a twenty-four hour period in the presence and absence of glycerol are plotted in the graph shown in the Figure. The reaction mixture consisted of 200 mM cinnamate, 6.0 M ammonia, 2.0 M glycerol and R. glutinis cells at pH 11.5 and 37° C. The final concentration of R. glutinis cells was approximately 90 mg/ml(wet weight). L-phenylalanine formation was determined by high pressure liquid chromatography. The amount of L-phenylalanine formed in twenty-four hours in the absence of glycerol was taken as 100."}}}
{"smiles": "OCCO", "note": "[ethylene glycol]", "values": [{"measurement": "Stabilizing effect on L-phenylalanine ammonia-lyase", "setting": "[1]", "result": "found not to generate the stabilizing effect"}]}
{"smiles": "OC[C@@H](O)[C@@H](O)[C@H](O)[C@H](O)CO", "note": "[D-mannitol]", "values": [{"measurement": "PAL Enzyme Activity", "setting": "[1]; alcohol 0.43 M", "result": 29}]}
{"smiles": "CCCCO", "note": "[butanol]", "values": [{"measurement": "Stabilizing effect on L-phenylalanine ammonia-lyase", "setting": "[1]", "result": "found not to generate the stabilizing effect"}]}
{"smiles": "OC[C@@H](O)[C@@H](O)[C@H](O)[C@@H](O)CO", "note": "[D-sorbitol]", "values": [{"measurement": "PAL Enzyme Activity", "setting": "[1]; alcohol 0.43 M", "result": 74}]}
{"smiles": "CCO", "note": "[ethanol]", "values": [{"measurement": "Stabilizing effect on L-phenylalanine ammonia-lyase", "setting": "[1]", "result": "found not to generate the stabilizing effect"}]}
{"smiles": "CO", "note": "[methanol]", "values": [{"measurement": "Stabilizing effect on L-phenylalanine ammonia-lyase", "setting": "[1]", "result": "found not to generate the stabilizing effect"}]}
{"smiles": "OCC(O)CO", "note": "[glycerol]", "values": [{"measurement": "PAL Activity with glycerol", "setting": "[2]; 46.1 mM cinnamate, R. glutinis cells 90 mg/ml", "result": 100}, {"measurement": "PAL Activity with glycerol", "setting": "[2]; 140.0 mM cinnamate, cells 90 mg/ml", "result": 100}, {"measurement": "PAL Activity with glycerol", "setting": "[2]; 185.0 mM cinnamate, cells 90 mg/ml", "result": 75}, {"measurement": "PAL Activity with glycerol", "setting": "[2]; 250.0 mM cinnamate, cells 90 mg/ml", "result": 59}, {"measurement": "Activity of L-phenylalanine ammonia-lyase at 250 mM cinnamate relative to that measured at 50 mM", "setting": "[2]; 250 mM versus 50 mM cinnamate, in presence of glycerol", "result": "about 60%"}, {"measurement": "Instantaneous rate of reaction (initial slope of curve) versus control without glycerol", "setting": "[3]", "result": "higher instantaneous rate of reaction"}, {"measurement": "L-phenylalanine formed during the 12 to 24 hr period (long term stabilizing effect)", "setting": "[3]; without glycerol enzyme essentially inactivated after 12 hours", "result": "substantial amount of L-phenylalanine formed during the 12 to 24 hr period"}, {"measurement": "PAL Enzyme Activity", "setting": "[1]; alcohol 0.72 M", "result": 100}]}
